Active and inactive are the calls of the source. No cut-off for these calls is given here.

For series [1], the target named is T1, Bile acid receptor (Homo sapiens) (UniProt Q96RI1).
T1 sequence (whole entry): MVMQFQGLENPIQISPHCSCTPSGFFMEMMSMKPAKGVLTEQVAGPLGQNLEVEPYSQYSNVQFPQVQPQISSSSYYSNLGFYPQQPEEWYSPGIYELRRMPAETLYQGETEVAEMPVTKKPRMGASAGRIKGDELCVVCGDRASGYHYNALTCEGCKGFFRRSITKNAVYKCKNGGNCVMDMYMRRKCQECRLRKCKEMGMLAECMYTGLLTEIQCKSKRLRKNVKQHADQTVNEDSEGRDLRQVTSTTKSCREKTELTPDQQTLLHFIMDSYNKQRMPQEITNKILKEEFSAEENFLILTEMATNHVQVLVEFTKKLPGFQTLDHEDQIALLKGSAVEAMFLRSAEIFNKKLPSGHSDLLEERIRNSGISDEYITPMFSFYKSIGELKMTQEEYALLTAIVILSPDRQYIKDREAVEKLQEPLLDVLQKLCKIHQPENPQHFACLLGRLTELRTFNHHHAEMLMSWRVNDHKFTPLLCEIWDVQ
The series can be described thus: Agonist activity at FXR in human Hepg2 cells. Type of series: cell-based.

For series [2], the target named is T2, Bile acid receptor (Rattus norvegicus) (UniProt Q62735).
T2 sequence (whole entry): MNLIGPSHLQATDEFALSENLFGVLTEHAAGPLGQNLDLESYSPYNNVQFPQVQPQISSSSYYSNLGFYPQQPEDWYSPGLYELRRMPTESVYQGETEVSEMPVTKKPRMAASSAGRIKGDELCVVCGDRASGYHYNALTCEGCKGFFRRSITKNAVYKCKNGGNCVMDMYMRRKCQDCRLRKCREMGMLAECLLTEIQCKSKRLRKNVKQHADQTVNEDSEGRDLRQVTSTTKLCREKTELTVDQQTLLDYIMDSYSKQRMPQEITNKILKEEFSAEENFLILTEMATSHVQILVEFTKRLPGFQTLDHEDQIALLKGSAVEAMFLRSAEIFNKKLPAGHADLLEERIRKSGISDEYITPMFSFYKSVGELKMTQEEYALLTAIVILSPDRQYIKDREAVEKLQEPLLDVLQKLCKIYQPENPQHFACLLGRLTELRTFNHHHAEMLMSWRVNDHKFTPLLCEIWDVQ
The series is described as follows: Agonist activity at FXR in rat primary hepatocytes assessed as reduction in CYP7A1 mRNA expression at 50 uM. Type of series: cell-based.

Series [3] addresses T2, Bile acid receptor (Rattus norvegicus). The series can be described thus: Agonist activity at FXR in rat primary hepatocytes assessed as increase in SHP mRNA expression at 50 uM. Type of series: cell-based.
The target is the same in series [4]. The series can be described thus: Agonist activity at FXR in rat primary hepatocytes assessed as increase in BSEP mRNA expression at 50 uM. Type of series: cell-based.
Series [5] concerns the target T1, Bile acid receptor (Homo sapiens). The series can be described thus: Agonist activity at FXR in human Caco2 cells. Type of series: cell-based.
The nature of series [6]: Efflux ratio in human Caco2 cells at 50 uM by LC-MS/MS method. Type of series: ADME, cell-based. Conditions: Caco-2. (In general: Caco-2 monolayers are a common model of the intestinal barrier.)
A short description of series [7]: Drug uptake in human Caco2 cells at 20 and 50 uM by LC-MS/MS method relative to initial level. Type of series: ADME, cell-based. As to conditions: caco-2, TDE = time-dependent effect.
For series [8], the system named is Serum. The series is described as follows: Drug accumulation in C57BL/6 mouse serum at 100 mg/kg, ig for 5 days by LC-MS/MS method. Type of series: ADME, organism-based. Conditions: in vivo, po, 120 h.
Series [9] in a line: Apparent permeability from basolateral to apical side in human Caco2 cells at 50 uM by LC-MS/MS method. Conditions: Caco-2. Type of series: ADME, cell-based.
Series [10] in a line: Apparent permeability from apical side to basolateral side in human Caco2 cells at 50 uM by LC-MS/MS method. Type of series: ADME, cell-based. As to conditions: Caco-2.
Series [11] can be described thus: Drug uptake in human Caco2 cells at 20 and 50 uM by LC-MS/MS method. Type of series: ADME, cell-based. As to conditions: Caco-2.
Series [12] deals with Mus musculus. The series is described as follows: Induction of FXR activation in C57BL/6 mouse ileum assessed as reduction in FXR-mediated Cyp7A1 mRNA expression at 100 mg/kg, ig for 5 days by PCR method. Type of series: functional, organism-based.
In series [13] the test system is Liver. The series can be described thus: Drug accumulation in C57BL/6 mouse liver at 100 mg/kg, ig for 5 days by LC-MS/MS method. Type of series: ADME, organism-based. As to conditions: in vivo, po, 120 h.
The test system of series [14] is Ileum. The series is described as follows: Drug accumulation in C57BL/6 mouse ileum at 100 mg/kg, ig for 5 days by LC-MS/MS method. Type of series: ADME, organism-based. Conditions: in vivo, po, 120 h.
The test system of series [15] is Jejunum. The series can be described thus: Drug accumulation in C57BL/6 mouse jejunum at 100 mg/kg, ig for 5 days by LC-MS/MS method. Type of series: ADME, organism-based. Conditions: in vivo, po, 120 h.
Series [16] in a line: Apparent permeability from basolateral to apical side in human Caco2 cells at 20 uM by LC-MS/MS method. Type of series: ADME, cell-based. Conditions: Caco-2.
Series [17] is described as follows: Efflux ratio in human Caco2 cells at 20 uM by LC-MS/MS method. Type of series: ADME, cell-based. Conditions: Caco-2.
Series [18] has as its system Mus musculus. The series is described as follows: Induction of FXR activation in C57BL/6 mouse ileum assessed as increase in FXR-mediated Bsep mRNA expression at 100 mg/kg, ig for 5 days by PCR method. Type of series: functional, organism-based.
Series [19] in a line: Apparent permeability from apical side to basolateral side in human Caco2 cells at 20 uM by LC-MS/MS method. Type of series: ADME, cell-based. Conditions: Caco-2.
Series [20] concerns the target T2, Bile acid receptor (Rattus norvegicus). The series can be described thus: Agonist activity at FXR in rat primary hepatocytes. Type of series: cell-based.
Series [21] concerns Caco-2. The series is described as follows: Cytotoxicity against human Caco2 cells at 100 uM incubated for 24 hrs by MTT assay. Type of series: cell-based. Conditions: caco-2, 24 h. A general note: Tetrazolium dyes change colour on reduction, which living cells bring about.
Series [22] concerns Mus musculus. The series can be described thus: Effect on FXR mRNA expression in C57BL/6 mouse kidney at 100 mg/kg, ig for 5 days by PCR method. As to conditions: in vivo, po, 120 h. Type of series: ADME, organism-based.
Series [23] relates to Mus musculus. The series is described as follows: Effect on FXR mRNA expression in C57BL/6 mouse liver at 100 mg/kg, ig for 5 days by PCR method. Type of series: ADME, organism-based. Conditions: in vivo, po, 120 h.
In series [24] the test system is Mus musculus. The series is described as follows: Effect on FXR mRNA expression in C57BL/6 mouse jejunum at 100 mg/kg, ig for 5 days by PCR method. Type of series: ADME, organism-based. As to conditions: in vivo, po, 120 h.
The subject of series [25] is Mus musculus. The series is described as follows: Increase in FXR mRNA expression in C57BL/6 mouse ileum at 100 mg/kg, ig for 5 days by PCR method. Type of series: functional, organism-based.
Series [26] is described as follows: Solubility in DMSO/mineral oil medium. Type of series: physicochemical.
For series [27], the system named is Mus musculus. The series can be described thus: Effect on FXR activation in C57BL/6 mouse non ileum part of intestine assessed as increase in FXR-mediated Shp mRNA expression at 100 mg/kg, ig for 5 days by PCR method. Type of series: organism-based. As to conditions: in vivo, po, 120 h.
Series [28] concerns Mus musculus. The series is described as follows: Effect on FXR activation in C57BL/6 mouse liver assessed as increase in FXR-mediated Shp mRNA expression at 100 mg/kg, ig for 5 days by PCR method. Type of series: organism-based. Conditions: in vivo, po, 120 h.
Series [29] has as its target T3, Bile acid receptor (Homo sapiens, UniProt Q96RI1).
T3 sequence (Q96RI1 whole entry): T1 sequence (whole entry)
The series can be described thus: Binding affinity to FXR (unknown origin).

Series [30] deals with Intestine. The series is described as follows: Drug accumulation in C57BL/6 mouse intestine assessed as drug adherence to intestinal wall at 100 mg/kg, ig for 5 days by LC-MS/MS method. Type of series: ADME, organism-based. Conditions: in vivo, po, 120 h.
Series [31] relates to Mus musculus. The series is described as follows: Effect on FXR mRNA expression in C57BL/6 mouse duodenum at 100 mg/kg, ig for 5 days by PCR method. Type of series: ADME, organism-based. As to conditions: in vivo, po, 120 h.
In series [32] the test system is Mus musculus. The series is described as follows: Effect on FXR activation in C57BL/6 mouse kidney assessed as increase in FXR-mediated Shp mRNA expression at 100 mg/kg, ig for 5 days by PCR method. As to conditions: in vivo, po, 120 h. Type of series: organism-based.
The target in series [33] is T1, Bile acid receptor (Homo sapiens). The series is described as follows: Binding affinity to FXR (unknown origin) relative to fexaramine.
The nature of series [34]: Drug uptake in human Caco2 cells at 20 and 50 uM by LC-MS/MS method after 3 hrs. Conditions: caco-2, 3 h. Type of series: ADME, cell-based.
The subject of series [35] is Mus musculus. The series is described as follows: Induction of FXR activation in C57BL/6 mouse ileum assessed as increase in FXR-mediated Shp mRNA expression at 100 mg/kg, ig for 5 days by PCR method. Type of series: functional, organism-based.

With `COC(=O)/C=C/c1cccc(N(Cc2ccc(-c3ccc(N(C)C)cc3)cc2)C(=O)c2ccc3cc(N(C)C)ccc3c2)c1`, the result in series [1] and in series [5] was inactive. In addition, the outcome in series [2], in series [3] and in series [4] was Active.
With `COC(=O)/C=C/c1cccc(N(Cc2ccc(-c3ccc(N(C)C)cc3)cc2)C(=O)C2CCCCC2)c1` [FEXARAMINE], in [6], the efflux ratio at 50 µM is 1.14. Further, the Drug uptake entry in series [7] is “Tde”; in series [8] it was “Active”; in series [11] it was “Active”; in [13] it was “Active”; in [14], “Active”; in series [15], “Active”. In addition, the Papp B→A at 50 µM in series [9] is 873 ×10⁻⁶ cm/s. The Papp A→B at 50 µM in series [10] is 762 ×10⁻⁶ cm/s. The outcome in [12] and in series [18] was Active. Also, in series [16], the Papp B→A at 20 µM was 24 ×10⁻⁶ cm/s. Besides, the efflux ratio at 20 µM in series [17] was 0.87. In addition, in series [19], the Papp A→B at 20 µM was determined as 27.7 ×10⁻⁶ cm/s.
On to `CNc1ccc2cc(C(=O)N(CC3CCCCC3)c3cccc(/C=C/C(=O)OC)c3)ccc2c1`, for which the outcome in series [1], in [20] and in series [5] was inactive.
Take `CNc1ccc2cc(C(=O)N(Cc3ccc(-c4ccc(N(C)C)cc4)cc3)c3cccc(/C=C/C(=O)OC)c3)ccc2c1`: the Activity result in series [21], in series [22], in series [23], in series [24], in [27] and in series [28] was “Non-Toxic” each time. The Activity entry in series [31] and in [32] was “Non-Toxic” in each case. In addition, the outcome in series [1] and in series [5] was inactive. Also, the outcome in series [2], in [25], in series [3], in series [12], in series [4] and in [18] was Active. Further, in series [35], the outcome was Active. For the same compound, the efflux ratio at 50 µM in series [6] was determined as 0.77. Also, the solubility entry in series [26] is “Insoluble”. For the same compound, the Papp B→A at 50 µM in series [9] worked out at 75 ×10⁻⁶ cm/s. For the same compound, the apparent permeability from apical to basolateral (Papp A→B) at 50 µM in [10] was determined as 97.6 ×10⁻⁶ cm/s. Moreover, the Drug uptake result in series [11], in series [14], in series [30] and in [34] was “Active” in each case. The same compound displayed a Kd in series [29] of 48.7 µM. Also, the Papp B→A at 20 µM in series [16] amounted to 6.62 ×10⁻⁶ cm/s. The efflux ratio at 20 µM in series [17] came out at 0.35. Besides, the Ratio in [33] came out at 2000. In addition, in series [19], the Papp A→B at 20 µM amounted to 18.7 ×10⁻⁶ cm/s.
As to `COC(=O)/C=C/c1cccc(N(CC2CCCCC2)C(=O)c2ccc3cc(N(C)C)ccc3c2)c1`, the result in [1], in series [20] and in series [5] was inactive.

One may read the efflux ratio as a quotient of directional permeabilities that is used to spot active efflux. As a reminder, the Papp B→A is how fast a substance crosses the layer from the basolateral side. By Papp A→B is commonly meant how fast a substance crosses the layer from the apical side. What is called Kd is the free concentration of one partner at which half of the binding sites on the other are occupied at equilibrium, for simple one-to-one binding. High values mean a looser complex, low ones a tighter complex.

The values are drawn from ChEMBL document CHEMBL4052684, “A novel intestinal-restricted FXR agonist” (Bioorg Med Chem Lett, 2017).
